Holding throughout (format): cell-based
One test has as its system HaCaT cells. Description: Resazurin assay, HaCaT keratinocyte proliferation and viability. Particulars: Homo sapiens, 10 μM MTX alone, 24 hours of treatment, read-out: reduction of proliferation and viability of HaCaT cells. The protocol:
The spontaneously immortalized, nontumorigenic skin keratinocyte cell line HaCaT was maintained in DMEM supplemented with 5% (v/v) FBS, 0.3 mg/ml glutamine and 0.1 mg/ml gentamicin at 37° C. with 5% CO2 in a humidified atmosphere. Subculture using trypsin-EDTA was performed every 3-4 days with split ratio of 1:3-1:4 to ensure actively proliferating cells. Cells were seeded in 96 well plates in fully supplemented medium at a density of 2500 cells per well. Following 72 hours of cultivation, the cells were starved of serum in 0.25% FBS/DMEM overnight to halt proliferation, synchronize and to increase cell sensitivity to treatment. On day 4, the cells were treated with cPLA2α inhibitor Compound A1 and folic acid analogue methotrexate hydrate (MTX) (Sigma Aldrich #A6770) and left to incubate for […] in incubator at 37° C. with 5% CO2 in a humidified atmosphere before fluorescence was read at 544 nm excitation and 590 nm emission wavelength. The cells were observed under the microscope to evaluate possible morphology changes and signs of stress before addition of resazurin. The experiments were performed in series of 8 wells per treatment and repeated 2-3 times.

Test [1] concerns LPS-induced production of TNF in PBMC. Description: LPS-induced TNF production in PBMC (ELISA). The conditions noted are these: 1 μM MTX alone, 72 hours, 10 ng/mL LPS. The protocol: (§1) Blood was recruited from healthy donors at St. Olays Hospital HF, the Bloodbank. Peripheral blood mononuclear cells (PBMC) were isolated using SepMate™ separation tubes with LymphoPrep density gradient medium according to the STEMCELL Technology recommendations. For experiments, 1×10^6 cells/well/1 mL RPMI medium supplemented with 5% FBS, 0.3 mg/ml glutamine and 0.1 mg/ml gentamicin with or without inhibitors Compound A1, methotrexate hydrate (MTX) (Sigma-Aldrich, #A6770) or a combination of the two inhibitors, prior to the addition of lipopolysaccharides as a potent inducer of inflammation (LPS from E. coli 026:B6 γ-irradiated, Sigma-Aldrich, #L2654). Following treatment (72 hrs., 37° C., 5% CO2), the cell suspensions were centrifuged to isolate the supernatant from the cell fraction. Samples were stored at −80° C. until analysis.
(§2) Cell supernatant samples were analyzed by enzyme-linked immunosorbent assay (EIA) for PGE2 (Cayman #514010), TNF and IL1-β (RnD Systems, DuoSet #DY210 and #DY201) according to the manufacturers protocols. Cell supernatants were assayed at dilutions 1:1 for TNF; 1:10 for IL1-β and 1:100 for PGE2, except supernatants from untreated PBMC (negative control) that were assayed undiluted in all assays. Supernatants were hybridized over-night incubation, enzymatic conversion of substrate were read at OD420 nm. […]
(In general: In an ELISA, binding on a coated surface is turned into a signal by an enzyme label.)

The test system of test [2] is LPS-induced IL-1b levels in PBMC. The test can be described thus: LPS-induced IL-1β production in PBMC (ELISA). The conditions noted are these: 1 μM MTX alone, 72 hours, 10 ng/mL LPS. The protocol:
as §1, §2

Take `CN(Cc1cnc2nc(N)nc(N)c2n1)c1ccc(C(=O)N[C@@H](CCC(=O)O)C(=O)O)cc1` [MTX, methotrexate hydrate]: the cytotoxicity at 10 µM with HaCaT cells was about 15%. Also, in test [1], the “reduction of LPS-induced TNF levels” value was about 20%. Besides, the “reduction of LPS-induced IL-1b levels” value in test [2] is about 20%.

The record behind these values is patent US20190216815A1, “COMBINATION THERAPY COMPRISING A POLYUNSATURATED KETONE AND A FOLIC ACID PARTNER” (Avexxin AS, priority 2016, published 2019).
